Data: US20230270826A1, “ANTIVIRAL USE OF L[…] GEFITINIB” (priority 2020, published 2023)

Assays:
interleukin 6 (IL-6) = test: Cytokine release assay (IL-6) in PBMC stimulated with SARS-CoV2 proteins; format: cell-based, human
[1] = tested on: genes from the COVID-19 model; test: Transcription fingerprinting by 3' RNA-sequencing of nucleocapsid-stimulated cells; format: cell-based, human
[2] = compound effect vs nucleocapsid stimulation

Row | Structure (SMILES) | Immune modulation of interleukin 6 (IL-6) release (interleukin 6 (IL-6); nucleocapsid (N) stimulation vs Mock, FIG. 1) | Expression of genes up- or down-regulated 2-fold by nucleocapsid (N) vs Mock ([1]; N+compound vs N, FIG. 4) | Regulation of genes up-regulated at time 4 h N vs Mock ([1]; N-compound vs N, 4 h, FIG. 4 boxplots) | Regulation of genes downregulated in nucleocapsid (N) stimulation vs Mock [1, 2] | Regulation of genes upregulated in nucleocapsid (N) stimulation vs Mock [1, 2] | Immune modulation of interleukin 6 (IL-6) release (interleukin 6 (IL-6); spike (S) or spike trimer (St) stimulation vs Mock, GEF 0.5 μM and 5 μM, POM 100 ng/ml, FIG. 3)
1 | COc1cc2ncnc(Nc3ccc(F)c(Cl)c3)c2cc1OCCCN1CCOCC1 [gefitinib] | stronger than by dexamethasone (DEX) alone | “normalized” in their expression | strongly down-regulated | upregulated | downregulated | –
2 | Nc1cccc2c1C(=O)N(C1CCC(=O)NC1=O)C2=O (stereo not drawn) [pomalidomide] | – | – | – | – | – | does not show immune modulation
